Test results: the Deep4Chem optical property database

Experiment: photoluminescence quantum yield (fraction); solvent given as SMILES
[1] = in O=P(c1ccccc1)(c1ccccc1)c1ccccc1Oc1ccccc1P(=O)(c1ccccc1)c1ccccc1

## CCCCCCC(CCCCCC)N1C(=O)c2cccc3c(-c4ccc(N(C)C)cc4)ccc(c23)C1=O
In CCCCCC
  photoluminescence quantum yield: 0.7
In CCCCCCCCCCCCCC
  photoluminescence quantum yield: 0.73
In CCCCCCCCCCCO
  photoluminescence quantum yield: 0.14
In CCCCO
  photoluminescence quantum yield: 0.013
In CN(C)C=O
  photoluminescence quantum yield: 0.0037
In Cc1ccccc1
  photoluminescence quantum yield: 0.65
In ClC(Cl)Cl
  photoluminescence quantum yield: 0.64

## COc1nc(Cl)nc(Nc2ccc3c4c(cccc24)C(=O)c2ccccc2-3)n1
In CC#N
  photoluminescence quantum yield: 0.52
In CC(C)=O
  photoluminescence quantum yield: 0.54
In CC(C)O
  photoluminescence quantum yield: 0.5
In CCCCOCCCC
  photoluminescence quantum yield: 0.05
In CCOC(C)=O
  photoluminescence quantum yield: 0.34
In CCOCC
  photoluminescence quantum yield: 0.12
In CO
  photoluminescence quantum yield: 0.33
In Cc1ccccc1
  photoluminescence quantum yield: 0.27
In Clc1ccccc1
  photoluminescence quantum yield: 0.5
In N#Cc1ccccc1
  photoluminescence quantum yield: 0.58
In O=C1CCCCC1
  photoluminescence quantum yield: 0.51

## O=c1c2cc(C#Cc3ccc(Cl)cc3)ccc2nc2ccc(C#Cc3ccc(Cl)cc3)cn12
In ClCCl
  photoluminescence quantum yield: 0.33

## COc1ccc(-c2nc3ccccc3nc2/C=C/N2CCCC2)s1
In C1CCCCC1
  photoluminescence quantum yield: 0.072
In C1CCOC1
  photoluminescence quantum yield: 0.155
In CC#N
  photoluminescence quantum yield: 0.21
In CC(C)=O
  photoluminescence quantum yield: 0.209
In CCO
  photoluminescence quantum yield: 0.031
In CO
  photoluminescence quantum yield: 0.009
In CS(C)=O
  photoluminescence quantum yield: 0.184
In Cc1ccccc1
  photoluminescence quantum yield: 0.095
In ClCCl
  photoluminescence quantum yield: 0.19

## O=c1oc2ccc3ccccc3c2nc1-c1ccccc1
In CC#N
  photoluminescence quantum yield: 0.56
In CCCCCC
  photoluminescence quantum yield: 0.12
In CO
  photoluminescence quantum yield: 0.5
In c1ccccc1
  photoluminescence quantum yield: 0.46

## C(#Cc1cccc2nsnc12)c1ccc(-n2c3ccccc3c3ccccc32)cc1
In ClCCl
  photoluminescence quantum yield: 0.54

## C(S/C=C/c1ccc(/C=C/SC=C(c2ccccc2)c2ccccc2)cc1)=C(c1ccccc1)c1ccccc1
In ClCCl
  photoluminescence quantum yield: 0.058

## CCOC(=O)CN1C(=O)C2=C(c3ccc(C#N)cc3)N(CC(=O)OCC)C(=O)C2=C1c1ccc(C#N)cc1
In CC#N
  photoluminescence quantum yield: 0.32
In CS(C)=O
  photoluminescence quantum yield: 0.72
In Cc1ccccc1
  photoluminescence quantum yield: 0.29

## CC1(C)C(/C=C/C2=C(Oc3ccc(CCN=C=S)cc3I)C(=C/C=C3/N(CCCS(=O)(=O)[O-])c4ccccc4C3(C)C)/CCC2)=[N+](CCCS(=O)(=O)[O-])c2ccccc21
In CO
  photoluminescence quantum yield: 0.15

## O=C1/C(=C2\Sc3ccc(S(=O)(=O)Nc4ccccc4)cc3C2=O)Sc2ccc(S(=O)(=O)Nc3ccccc3)cc21
In C1COCCO1
  photoluminescence quantum yield: 0.358
In CN(C)C=O
  photoluminescence quantum yield: 0.018
In CO
  photoluminescence quantum yield: 0.006
In CS(C)=O
  photoluminescence quantum yield: 0.004

## COc1ccc(-c2c3ccccc3c3n2[B-](F)(F)[N+]2=Cc4c5ccccc5c(-c5ccc(OC)cc5)n4[B-](F)(F)[N+]2=C3)cc1
In CC#N
  photoluminescence quantum yield: 0.22
In CCCCCC
  photoluminescence quantum yield: 0.32
In CN(C)C=O
  photoluminescence quantum yield: 0.23
In Cc1ccccc1
  photoluminescence quantum yield: 0.31
In ClCCl
  photoluminescence quantum yield: 0.31

## O=c1oc2ccccc2c2c1c(=O)oc1ccc3ccc(O)cc3c12
In CS(C)=O
  photoluminescence quantum yield: 0.02
In ClCCl
  photoluminescence quantum yield: 0.22

## Cc1ccc2c(c1)nnn2-c1c(C#N)c2c(N)ncnc2n1[C@H]1C[C@H](O)[C@@H](CO)O1
In CO
  photoluminescence quantum yield: 0.007

## O=C(c1ccc(N2c3ccccc3Sc3ccccc32)cc1)c1ccc2sc3ccccc3c2c1
In C1CCOC1
  photoluminescence quantum yield: 0.005
In c1ccc2c(c1)c1ccccc1n2-c1ccc(-c2ccc(-n3c4ccccc4c4ccccc43)cc2)cc1
  photoluminescence quantum yield: 0.768

## CCN(CC)/C(C)=N\c1ccc2c3c(cccc13)C(=O)c1ccccc1-2
In C1CCOC1
  photoluminescence quantum yield: 0.17
In CCCCCC
  photoluminescence quantum yield: 0.21
In CCO
  photoluminescence quantum yield: 0.14
In CCOC(C)=O
  photoluminescence quantum yield: 0.22
In CN(C)C=O
  photoluminescence quantum yield: 0.15
In CO
  photoluminescence quantum yield: 0.14
In Cc1ccccc1
  photoluminescence quantum yield: 0.56
In ClC(Cl)(Cl)Cl
  photoluminescence quantum yield: 0.31
In ClC(Cl)Cl
  photoluminescence quantum yield: 0.49
In ClCCl
  photoluminescence quantum yield: 0.5
In c1ccccc1
  photoluminescence quantum yield: 0.55

## C[Si]1(C)O[Si](C)(C)c2cc3c(-c4ccccc4F)c4cc(Cl)ccc4nc3cc21
In ClCCl
  photoluminescence quantum yield: 0.56

## COC(=O)c1cc(=O)n(C)c2cc(-c3ccc4c(c3)OCCO4)sc12
In CC#N
  photoluminescence quantum yield: 0.68
In ClCCl
  photoluminescence quantum yield: 0.83

## c1ccc(-c2nnc(-c3cc(-c4nnc(-c5ccccc5)o4)c(-n4c5ccccc5c5ccccc54)cc3-n3c4ccccc4c4ccccc43)o2)cc1
In Cc1ccccc1
  photoluminescence quantum yield: 0.101
[1]
  photoluminescence quantum yield: 0.581

## CN(C)c1ccc(-c2nc(-c3ccc(-n4c5ccccc5c5ccccc54)cc3)cc(-c3ccc(-n4c5ccccc5c5ccccc54)cc3)n2)cc1
In C1CCOC1
  photoluminescence quantum yield: 0.035
In CN(C)C=O
  photoluminescence quantum yield: 0.011
In Cc1ccccc1
  photoluminescence quantum yield: 0.07
In ClC(Cl)Cl
  photoluminescence quantum yield: 0.07

## O=[N+]([O-])c1ccc(NCCNCc2c3ccccc3cc3ccccc23)c([N+](=O)[O-])c1
In C1CCCCC1
  photoluminescence quantum yield: 0.0003
In C1CCOC1
  photoluminescence quantum yield: 0.00044
In CC#N
  photoluminescence quantum yield: 0.00168
In CC(C)=O
  photoluminescence quantum yield: 0.0024
In CCO
  photoluminescence quantum yield: 0.0363
In CN(C)C=O
  photoluminescence quantum yield: 0.00369
In CO
  photoluminescence quantum yield: 0.0334
In ClC(Cl)Cl
  photoluminescence quantum yield: 0.0061

## c1ccc2c(c1)[nH]c1c3ccccc3[nH]c21
In CCCO
  photoluminescence quantum yield: 0.89

## O=C(O)c1ccc2ccc3cccc4ccc1c2c34
In C1CCOC1
  photoluminescence quantum yield: 0.57
In CC#N
  photoluminescence quantum yield: 0.11
In CCCCCC
  photoluminescence quantum yield: 0.56
In CCO
  photoluminescence quantum yield: 0.038
In CN(C)C=O
  photoluminescence quantum yield: 0.003
In CO
  photoluminescence quantum yield: 0.097
In Cc1ccccc1
  photoluminescence quantum yield: 0.73
In ClCCl
  photoluminescence quantum yield: 0.63

## Cc1ccc(C)n1-c1ccc(C#N)cc1
In C1CCOC1
  photoluminescence quantum yield: 0.025
In CCCCCC
  photoluminescence quantum yield: 0.026
In CCCCCl
  photoluminescence quantum yield: 0.035
In CCOCC
  photoluminescence quantum yield: 0.019
In ClCCl
  photoluminescence quantum yield: 0.033

## N#CC1=C(N)n2c(=O)c3ccccc3c(=O)n2C1c1ccccc1 (centres undefined)
In CS(C)=O
  photoluminescence quantum yield: 0.057

## c1ccc(/C(=C(\c2ccccc2)c2cc(-c3ccccc3)ccc2-c2ccc(-c3ccccc3)cc2)c2cc(-c3ccccc3)ccc2-c2ccc(-c3ccccc3)cc2)cc1
In C1CCOC1
  photoluminescence quantum yield: 0.38

## c1cc2ccc1-c1ccc(cc1)-c1sc(c3c1OCCO3)-c1ccc(cc1)-c1ccc(cc1)-c1sc(c3c1OCCO3)-c1ccc(cc1)-c1ccc(cc1)-c1sc-2c2c1OCCO2
In C1CCOC1
  photoluminescence quantum yield: 0.34

## CCN(CC)c1ccc2cc(-c3nc4cc(C(=O)Nc5ccccc5[N+](=O)[O-])ccc4o3)c(=O)oc2c1
In ClCCl
  photoluminescence quantum yield: 0.38

## COc1cc2sc3nc(-c4ccccc4OC)sc3c2cc1OC
In CS(C)=O
  photoluminescence quantum yield: 0.76

## CCOC(=O)c1cc(C(=O)NCc2ccccc2)c2ccc(N(C)C)cc2n1
In CCO
  photoluminescence quantum yield: 0.06

## CCN(CC)c1ccc(-n2c(C)ccc2C)cc1
In CC#N
  photoluminescence quantum yield: 0.24
In CCCCCC
  photoluminescence quantum yield: 0.17

## CCn1c2cc(-c3ccc(-c4cccs4)s3)ccc2c2ccc(-c3ccc(-c4cccs4)s3)cc21
In ClCCl
  photoluminescence quantum yield: 0.482

## C[Si](C)(C)[Si](C)(C)c1ccc2cc3ccccc3cc2c1
In C1CCCCC1
  photoluminescence quantum yield: 0.22
In CC#N
  photoluminescence quantum yield: 0.08

## c1cc2ccc3ccc4cc3c2cc1c1ccc2ccc3ccc(cc3c2c1)c1ccc2c(c1)c1cc4ccc1[C@]13OCCO[C@]21OCCO3
In Cc1ccccc1
  photoluminescence quantum yield: 0.78

## CN1C(=O)/C(=C/c2ccncc2)N=C1/C=C/c1ccccc1
In C1COCCO1
  photoluminescence quantum yield: 0.029
In CC#N
  photoluminescence quantum yield: 0.011
In CCO
  photoluminescence quantum yield: 0.099
In CCOC(C)=O
  photoluminescence quantum yield: 0.017
In O
  photoluminescence quantum yield: 0.004

## Nc1cc([NH3+])cc(-c2nc3ccccc3s2)c1
In O
  photoluminescence quantum yield: 0.064

## Cc1cc(N2c3ccccc3C(C)(C)c3ccccc32)ccc1-c1ncnc(-c2ccc(N3c4ccccc4C(C)(C)c4ccccc43)cc2C)c1C
[1]
  photoluminescence quantum yield: 0.47

## c1ccc2c(P(c3c4ccccc4cc4ccccc34)c3c4ccccc4cc4ccccc34)c3ccccc3cc2c1
In C1CCOC1
  photoluminescence quantum yield: 0

## CN(C)c1ccc(/C=C/c2nc3ccccc3o2)cc1
In C1CCCCC1
  photoluminescence quantum yield: 0.005
In CO
  photoluminescence quantum yield: 0.007

## C[n+]1ccc(/C=C/c2cc[n+](C)cc2)cc1
In CC#N
  photoluminescence quantum yield: 0.015

## CCCCC(CC)CN1C(=O)c2cccc3c(C#Cc4ccc(N(c5ccc(C#Cc6ccc7c8c(cccc68)C(=O)N(CC(CC)CCCC)C7=O)cc5)c5ccc(C#Cc6ccc7c8c(cccc68)C(=O)N(CC(CC)CCCC)C7=O)cc5)cc4)ccc(c23)C1=O (centres undefined)
In C1CCCCC1
  photoluminescence quantum yield: 0.064
In C1CCOC1
  photoluminescence quantum yield: 0.027
In CC#N
  photoluminescence quantum yield: 0.111
In Cc1ccccc1
  photoluminescence quantum yield: 0.053
In ClC(Cl)Cl
  photoluminescence quantum yield: 0.041

## CCCCCCN1C(=O)c2cccc3c(-c4sc(-c5ccc6c7c(cccc57)C(=O)N(CCCCCC)C6=O)c5c4OCCO5)ccc(c23)C1=O
In ClC(Cl)Cl
  photoluminescence quantum yield: 0.22

## COc1ccc(C2=C3C(C)=CC(C=Cc4ccc(C(=O)OC5C[C@H]6CCC5(C)C6(C)C)cc4)=[N+]3[B-](F)(F)n3c(C)cc(C)c32)cc1 (some centres undefined)
In Cc1ccccc1
  photoluminescence quantum yield: 0.41

## CCCCCCN1C(=O)c2cccc3c(-c4ccc(-c5cc(-c6cccc7ccccc67)nn5-c5ccccc5)s4)ccc(c23)C1=O
In ClCCl
  photoluminescence quantum yield: 0.16

## Cc1cc(C)n2c1C=C1c3ccccc3C(c3cccn3C)=[N+]1[B-]2(F)F
In C1CCOC1
  photoluminescence quantum yield: 0.96
In CC#N
  photoluminescence quantum yield: 0.97
In CCCCCC
  photoluminescence quantum yield: 0.96
In CO
  photoluminescence quantum yield: 0.98
In Cc1ccccc1
  photoluminescence quantum yield: 0.94
In ClCCl
  photoluminescence quantum yield: 0.99

## COc1ccc(-c2nc3c([nH]2)=C2C=C(Cl)S[C@@]2(C)[C@]2(C)SC(Cl)=CC=32)cc1
In CC#N
  photoluminescence quantum yield: 0.002

## CC(C)Oc1ccc(C#Cc2cc3ccccc3oc2=O)cc1
In CC#N
  photoluminescence quantum yield: 0.43

## C1=C(c2ccccc2)C2=Nc3c(-c4ccccc4)cc4n3[B-]3(Oc5ccccc5C1=[N+]23)Oc1ccccc1-4 (centres undefined)
In Cc1ccccc1
  photoluminescence quantum yield: 0.51
